The text below walks through data of US20050192279A1, “Pyridazinones as antagonists of alpha4 integrins” (priority 2004, published 2005).

One assay concerns the target T1, human α4β7 integrin (Homo sapiens, UniProt P13612+P26010).
T1 construct: expressed in transfected cells; host or cells: K562 cells, stably transfected
T1 sequence (P13612 34-1032): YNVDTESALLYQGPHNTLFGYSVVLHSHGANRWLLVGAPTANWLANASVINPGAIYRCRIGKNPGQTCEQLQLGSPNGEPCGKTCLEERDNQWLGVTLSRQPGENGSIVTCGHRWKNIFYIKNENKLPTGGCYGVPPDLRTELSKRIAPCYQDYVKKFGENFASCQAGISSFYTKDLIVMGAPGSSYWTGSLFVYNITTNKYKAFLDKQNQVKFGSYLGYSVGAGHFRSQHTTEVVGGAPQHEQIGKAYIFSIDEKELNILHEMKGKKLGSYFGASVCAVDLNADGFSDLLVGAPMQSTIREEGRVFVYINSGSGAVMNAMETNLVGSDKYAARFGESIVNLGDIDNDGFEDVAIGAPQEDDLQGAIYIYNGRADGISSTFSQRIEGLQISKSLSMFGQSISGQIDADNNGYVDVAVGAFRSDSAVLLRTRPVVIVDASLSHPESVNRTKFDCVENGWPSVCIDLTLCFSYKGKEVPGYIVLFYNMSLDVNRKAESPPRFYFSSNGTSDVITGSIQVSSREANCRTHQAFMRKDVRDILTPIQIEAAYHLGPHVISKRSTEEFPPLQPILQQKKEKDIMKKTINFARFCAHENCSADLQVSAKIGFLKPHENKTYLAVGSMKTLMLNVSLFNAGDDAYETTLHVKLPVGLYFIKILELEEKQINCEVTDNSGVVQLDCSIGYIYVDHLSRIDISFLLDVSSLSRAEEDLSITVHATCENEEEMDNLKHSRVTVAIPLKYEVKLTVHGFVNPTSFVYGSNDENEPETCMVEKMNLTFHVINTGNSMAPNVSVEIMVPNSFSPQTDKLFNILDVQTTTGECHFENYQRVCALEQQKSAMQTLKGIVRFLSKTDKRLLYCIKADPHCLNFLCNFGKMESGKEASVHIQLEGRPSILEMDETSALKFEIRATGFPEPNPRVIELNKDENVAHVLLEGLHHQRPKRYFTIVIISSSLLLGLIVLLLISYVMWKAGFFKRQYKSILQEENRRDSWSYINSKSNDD
T1 sequence (P26010 20-798): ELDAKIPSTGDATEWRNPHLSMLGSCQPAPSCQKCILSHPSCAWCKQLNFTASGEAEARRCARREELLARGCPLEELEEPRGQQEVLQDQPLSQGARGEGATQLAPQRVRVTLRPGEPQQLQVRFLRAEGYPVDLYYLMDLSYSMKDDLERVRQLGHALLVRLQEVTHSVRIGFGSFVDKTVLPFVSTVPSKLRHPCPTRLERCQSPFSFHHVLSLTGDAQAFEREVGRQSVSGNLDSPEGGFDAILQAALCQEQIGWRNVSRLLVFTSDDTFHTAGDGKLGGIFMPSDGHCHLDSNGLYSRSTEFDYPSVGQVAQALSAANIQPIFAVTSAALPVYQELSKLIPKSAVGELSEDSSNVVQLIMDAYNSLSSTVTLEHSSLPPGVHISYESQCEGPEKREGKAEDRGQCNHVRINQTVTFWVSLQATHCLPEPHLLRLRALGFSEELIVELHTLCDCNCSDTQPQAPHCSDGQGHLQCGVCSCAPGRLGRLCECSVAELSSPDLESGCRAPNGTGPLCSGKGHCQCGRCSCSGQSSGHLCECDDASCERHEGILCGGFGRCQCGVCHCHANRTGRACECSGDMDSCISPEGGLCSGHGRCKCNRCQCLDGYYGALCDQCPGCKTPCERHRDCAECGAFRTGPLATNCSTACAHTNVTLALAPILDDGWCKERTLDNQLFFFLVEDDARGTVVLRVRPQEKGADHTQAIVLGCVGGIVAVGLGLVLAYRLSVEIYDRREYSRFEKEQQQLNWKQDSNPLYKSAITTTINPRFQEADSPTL
Description: α4β7-K562 Cell Adhesion Assay (α4β7 Mediated Adhesion/MAdCAM-1). It counts as cell-based. Particulars: α4β7-K562 cell adhesion to hMAdCAM-1; read-out: α4β7 IC50. The gist of the method:
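Anti-FLAG plates coated 1 h at 4° C with FLAG-hMAdCAM-1 in PBS pH 7.4, 1% BSA, 1 mM Mn2+. Stably transfected K562 cells expressing human α4β7, labelled with CFDA-SE, adhered with compound 1 h at room temperature. After four washes, bound cells lysed in 0.1 M NaOH for fluorescence read-out.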

The next assay has as its target T2, α4β1 (Homo sapiens, UniProt P05556+P13612).
T2 construct: Ramos Cell Adhesion Assay (α4β1 Mediated Adhesion/VCAM-1); endogenous in cells; host or cells: Ramos cells
In words: Ramos Cell Adhesion Assay (α4β1 Mediated Adhesion/VCAM-1). It counts as cell-based. The following applies: Ramos cell adhesion to hVCAM-1; read-out: α4β1 IC50. Summed up: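 Plates coated overnight at 4° C with recombinant hVCAM-1 at 4.0 μg/mL, pH 9.0, then blocked in PBS/1% BSA. Calcein AM-labeled Ramos cells added with compounds and left to adhere 1 h at room temperature; after washing, cells lysed in 1 M Tris pH 8.0/1% SDS.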

T2 sequence (P05556 21-798, one chain of several): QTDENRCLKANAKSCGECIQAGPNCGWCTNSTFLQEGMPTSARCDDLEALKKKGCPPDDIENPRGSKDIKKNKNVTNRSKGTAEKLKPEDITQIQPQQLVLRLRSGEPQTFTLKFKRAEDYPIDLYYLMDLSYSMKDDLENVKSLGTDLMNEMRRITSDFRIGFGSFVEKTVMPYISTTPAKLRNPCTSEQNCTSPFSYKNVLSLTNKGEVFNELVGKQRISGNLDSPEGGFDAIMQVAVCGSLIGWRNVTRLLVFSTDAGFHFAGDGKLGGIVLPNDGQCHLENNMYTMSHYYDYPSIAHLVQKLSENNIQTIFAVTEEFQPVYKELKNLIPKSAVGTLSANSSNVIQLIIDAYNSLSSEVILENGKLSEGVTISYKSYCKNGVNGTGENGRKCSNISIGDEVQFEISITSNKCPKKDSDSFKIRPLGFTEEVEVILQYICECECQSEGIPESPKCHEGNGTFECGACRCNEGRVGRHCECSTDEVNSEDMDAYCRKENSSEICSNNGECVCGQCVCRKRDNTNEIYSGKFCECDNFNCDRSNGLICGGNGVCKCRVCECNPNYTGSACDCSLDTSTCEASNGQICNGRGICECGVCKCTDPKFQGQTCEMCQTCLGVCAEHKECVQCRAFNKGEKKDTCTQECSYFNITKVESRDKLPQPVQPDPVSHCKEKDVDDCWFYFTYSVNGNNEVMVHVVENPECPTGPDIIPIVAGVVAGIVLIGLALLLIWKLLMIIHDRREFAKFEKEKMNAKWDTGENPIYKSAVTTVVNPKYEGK

The term IC50 denotes the concentration at which inhibition is half-maximal. For the compound `COc1cnn(CC(N)=O)c(=O)c1-c1ccc(C[C@H](NC(=O)c2c(Cl)cccc2Cl)C(=O)O)cc1` [Cpd 5], the IC50 at human α4β7 integrin was 1 nM; on α4β1, 307 nM.
For the compound `COc1cnn(CCN2CCOCC2)c(=O)c1-c1ccc(C[C@H](NC(=O)c2c(Cl)cccc2Cl)C(=O)O)cc1` [Cpd 10], the IC50 on human α4β7 integrin is 2 nM; on α4β1 it was 363 nM.
The matching figures for `COc1cnn(CC(=O)O)c(=O)c1-c1ccc(C[C@H](NC(=O)c2c(Cl)cccc2Cl)C(=O)O)cc1` [Cpd 11]: 2 nM and 842 nM.
Turning to `COc1cnn(CCO)c(=O)c1-c1ccc(C[C@H](NC(=O)c2c(Cl)cccc2Cl)C(=O)O)cc1` [Cpd 15, (S)-2-(2,6-Dichloro-benzoylamino)-3{4-[2-(2-hydroxy-ethyl)-5-methoxy-3-oxo-2,3-dihydro-pyridazin-4-yl]-phenyl}-propionic acid], the IC50 turned out to be 2 nM at human α4β7 integrin and 125 nM on α4β1.
The matching figures for `CNc1cnn(CC(C)=O)c(=O)c1-c1ccc(C[C@H](NC(=O)c2c(Cl)cccc2Cl)C(=O)O)cc1` [Cpd 18]: 3 nM and above 1000 nM.
As for `O=C(N[C@@H](Cc1ccc(-c2c(OCc3cccnc3)cnn(CCO)c2=O)cc1)C(=O)O)c1c(Cl)cccc1Cl` [Cpd 30], the 50% inhibitory concentration (IC50) at human α4β7 integrin was determined as 6 nM; on α4β1, 284 nM.
For `O=C(N[C@@H](Cc1ccc(-c2c(OCC3CC3)cnn(CCO)c2=O)cc1)C(=O)O)c1c(Cl)cccc1Cl` [Cpd 35] the same measures were 8 nM and 342 nM.
For the compound `Cn1ncc(N)c(-c2ccc(C[C@H](NC(=O)c3c(Cl)cccc3Cl)C(=O)O)cc2)c1=O` [Cpd 46], the figures for the IC50 at human α4β7 integrin and on α4β1 were 13 nM and 370 nM, respectively.
For `O=C(N[C@@H](Cc1ccc(-c2c(N3CCOCC3)cnn(CCO)c2=O)cc1)C(=O)O)c1c(Cl)cccc1Cl` [Cpd 61] the same measures were 20 nM and 221 nM.
For the compound `COc1cnn(C)c(=O)c1-c1ccc(C[C@H](NC(=O)[C@@H]2C3CCC(CC3)N2C(=O)CCc2ccccc2)C(=O)O)cc1` [Cpd 89, 3-[4-(5-Methoxy-2-methyl-3-oxo-2,3-dihydro-pyridazin-4-yl)-phenyl]-2(S)-{[2-(3-phenyl-propionyl)-2-aza-bicyclo[2.2.2]octane-3(S)-carbonyl]-amino}-propionic acid], the IC50 was 47 nM at human α4β7 integrin and 39.7 nM on α4β1.
As for `COc1cnn(CCO)c(=O)c1-c1ccc(C[C@H](NC(=O)OC(C)(C)C)C(=O)O)cc1` [Cpd 120], the 50% inhibitory concentration (IC50) on human α4β7 integrin was determined as 113 nM.
With `COC(=O)[C@H](Cc1ccc(-c2c(OC)cnn(C)c2=O)cc1)NC(=O)c1c(Cl)cccc1Cl` [Cpd 151], the IC50 at human α4β7 integrin is 274 nM; at α4β1 it was above 5000 nM.
For `COc1cnn(CCO)c(=O)c1-c1ccc(C[C@H](NC(=O)c2c(Cl)cccc2Cl)C(=O)OCCO)cc1` [Cpd 199] the same measures were 1370 nM and above 5000 nM.
For the compound `COc1cnn(C)c(=O)c1-c1ccc(C[C@H](NC(=O)c2c(Cl)cccc2Cl)C(=O)OCC(C)(C)C)cc1` [Cpd 207], the figures for the IC50 on human α4β7 integrin and on α4β1 were 2690 nM and above 5000 nM, respectively.
Take `Cn1ncc(N)c(-c2ccc(C[C@H](NC(=O)c3c(Cl)cccc3Cl)C(=O)OCCO)cc2)c1=O` [Cpd 232]: the IC50 at human α4β7 integrin and at α4β1 was above 5000 nM in each case.
